Results on five compounds are retold here after the NIST ThermoML archive (doi:10.1016/j.fluid.2010.04.010).

Numbers after ± are expanded uncertainties.

The nature of the data set: activity coefficient (dimensionless); of the first substance listed, at infinite dilution; xn = mol fraction of the nth substance listed. The note with it: Liquid, Dilutor technique, x1 = 0.

`C1=CCCCC1` [cyclohexene] + CCCCCCn1cc[n+](C)c1.F[B-](F)(F)F: the activity coefficient was 7.74 ± 0.004 (303.15 K), 7.632 ± 0.004 (313.15 K), 7.496 ± 0.004 (323.15 K) and 7.052 ± 0.004 (333.15 K).

Consider `c1ccccc1` [benzene] + CCCCCC[n+]1cccc(C)c1.O=S(=O)([N-]S(=O)(=O)C(F)(F)F)C(F)(F)F, for which the activity coefficient reads like this: (303.15 K) 0.673 ± 0.004; (313.15 K) 0.683 ± 0.004; (323.15 K) 0.691 ± 0.004; (333.15 K) 0.701 ± 0.004.

In the case of `c1ccccc1` [benzene] + CCCCn1cc[n+](C)c1.F[B-](F)(F)F, the activity coefficient stood at 2.341 ± 0.004 (313.15 K), 2.246 ± 0.004 (323.15 K) and 2.218 ± 0.004 (333.15 K).

For the compound `C1=CCCCC1` [cyclohexene] + CCCCCC[n+]1cccc(C)c1.O=S(=O)([N-]S(=O)(=O)C(F)(F)F)C(F)(F)F, the activity coefficient amounted to 3.337 ± 0.004 (303.15 K), 3.205 ± 0.004 (313.15 K), 3.131 ± 0.004 (323.15 K) and 3.018 ± 0.004 (333.15 K).

As to `c1ccccc1` [benzene] + CCCCCCn1cc[n+](C)c1.F[B-](F)(F)F, the activity coefficient is 1.385 ± 0.004 (303.15 K), 1.446 ± 0.004 (313.15 K), 1.562 ± 0.004 (323.15 K) and 1.912 ± 0.004 (333.15 K).
